Legend:
Type in all cases: biochemical
human JAK2 = target: T1, human JAK2 (Homo sapiens, UniProt O60674); assay: JAK kinase assay (ELISA or Alphascreen), Jak2; conditions: standard conditions, read-out: Jak2 inhibition of enzyme activity
T1 construct: The kinase domain of human JAK2 was amplified from U937mRNA; His tag (pFastBac HTc vector; nickel chelate purification) (N); made in house; host or cells: baculovirus; Sf9 for virus, High Five insect cells for production
Excerpt: The kinase domain of human JAK2 was amplified from U937mRNA using the polymerase chain reaction with the following primers: […]
JAK2 PCR products were cloned into the pFastBac HTc expression vector (Gibco) via the Sal I and Not I sites. The JAK2 plasmid was then transformed into competent DHL10Bac cells (Gibco), and the recombinant baculovirus produced prepared for transfection into Sf9 insect cells.
(§1) Baculovirus preparations from each of the JAK family members were infected into five litres of High Five cells (Invitrogen) grown in High Five serum free medium (Invitrogen) to a cell density of approximately 1-2×10^6 cells/ml. Cells are infected with virus at a MOI of 0.8-3.0. Cells were harvested and lysed. JAK kinase domains were purified by affinity chromatography on a Probond (Invitrogen) nickel chelate affinity column.
(§2) Kinase assays were performed either in a 96 well capture-based ELISA assay or in 384 well Optiplates (Packard) using an Alphascreen Protein Tyrosine Kinase kit. In either case using approximately 15 μg of affinity purified PTK domain in the presence of 50 mM HEPES, pH 7.5, 10 mM MgCl2 150 mM NaCl and 10 μM-1 mM ATP. The biotinylated substrate biotin-EGPWLEEEEEAYGWMDF-NH2 (final concentration 5 μM) was used as substrate. In the ELISA assay tyrosine phosphorylation was quantitated following transfer to an avidin coated ELISA plate using peroxidase-linked anti-phospho-tyrosine antibody PY20. In the Alphascreen assay, Alphascreen phosphotyrosine acceptor beads followed by streptavidin donor beads were added under subdued light. The ELISA plates were read on a BMG Fluorostar, the Alphascreen plates were read on a Packard Fusion Alpha. Inhibitors were added to the assays fifteen minutes prior to the addition of ATP. Inhibitors were added in aqueous DMSO, with DMSO concentrations never exceeding 1%.

human JAK3 = target: T2, human JAK3 (Homo sapiens, UniProt P52333); assay: JAK kinase assay (ELISA or Alphascreen), Jak3; conditions: standard conditions, read-out: Jak3 inhibition of enzyme activity
T2 construct: The kinase domain of human JAK3 was amplified from U937mRNA; His tag (pFastBac HTb vector; nickel chelate purification) (N); made in house; host or cells: baculovirus; Sf9 for virus, High Five insect cells for production
Excerpt: The kinase domain of human JAK3 was amplified from U937mRNA using the polymerase chain reaction with the following primers: […]
JAK3 PCR products were cloned into the pFastBac HTb expression vector (Gibco) via the Xho I and Kpn I sites. The JAK3 plasmid was then transformed into competent DH10Bac cells (Gibco), and the recombinant baculovirus produced prepared for transfection into Sf9 insect cells.
as §1, §2

kdr = kdr (Homo sapiens, UniProt P35968); assay: Kinase assay (ELISA or Alphascreen), kdr; conditions: standard conditions, read-out: kdr inhibition of enzyme activity
Protocol: as §2

Chain of kdr (P35968 834-1162 limits assumed, species assumed): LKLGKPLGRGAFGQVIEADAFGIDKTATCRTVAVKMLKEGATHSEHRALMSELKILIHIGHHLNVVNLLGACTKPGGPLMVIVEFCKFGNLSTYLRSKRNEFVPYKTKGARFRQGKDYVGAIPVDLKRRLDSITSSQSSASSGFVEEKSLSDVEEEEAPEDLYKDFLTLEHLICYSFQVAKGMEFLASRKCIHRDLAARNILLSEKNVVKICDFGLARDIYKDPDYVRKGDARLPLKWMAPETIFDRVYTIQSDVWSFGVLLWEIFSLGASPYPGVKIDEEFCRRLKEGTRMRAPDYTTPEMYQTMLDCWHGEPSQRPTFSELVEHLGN
T2 sequence (P52333 822-1111 limits assumed): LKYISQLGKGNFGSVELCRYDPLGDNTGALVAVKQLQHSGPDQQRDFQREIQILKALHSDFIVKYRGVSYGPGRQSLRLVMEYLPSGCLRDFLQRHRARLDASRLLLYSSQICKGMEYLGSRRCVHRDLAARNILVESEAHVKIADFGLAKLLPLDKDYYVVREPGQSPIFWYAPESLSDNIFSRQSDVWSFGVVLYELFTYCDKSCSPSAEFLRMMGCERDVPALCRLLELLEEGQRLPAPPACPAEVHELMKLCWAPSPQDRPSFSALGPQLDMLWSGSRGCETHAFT
T1 sequence (O60674 849-1124 limits assumed): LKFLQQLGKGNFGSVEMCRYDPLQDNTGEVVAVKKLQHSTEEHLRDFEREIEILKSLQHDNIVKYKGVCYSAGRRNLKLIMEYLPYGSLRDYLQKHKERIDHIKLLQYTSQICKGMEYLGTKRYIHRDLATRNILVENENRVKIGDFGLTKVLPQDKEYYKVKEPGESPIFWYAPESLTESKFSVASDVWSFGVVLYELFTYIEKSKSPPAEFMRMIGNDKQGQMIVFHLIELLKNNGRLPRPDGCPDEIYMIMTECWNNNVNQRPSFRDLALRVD

SMILES | inhibition at 20 µM (human JAK2) [%] | inhibition at 20 µM (human JAK3) [%] | inhibition at 20 µM (kdr) [%]
CCN(CC)Cc1ccc2ncn(-c3cncc(NC(C)c4ccc(F)cc4)n3)c2c1 (stereo not drawn) | < 50 | < 50 | 
COc1cccc([C@H](C)Nc2cncc(-n3cnc4ccccc43)n2)c1 | < 50 | < 50 | ≥ 50
CC(Nc1cncc(-n2cnc3cc(CN(C)C)ccc32)n1)c1ccc(F)cc1 (stereo not drawn) | < 50 | < 50 | ≥ 50
N#Cc1ccc2c(c1)ncn2-c1cncc(NC2Cc3ccccc3C2)n1 | < 50 | < 50 | 
CC(Nc1cncc(-n2cnc3ccccc32)n1)c1ccncc1 (stereo not drawn) | < 50 | < 50 | ≥ 50
COc1cccc2c1CCC2Nc1cncc(-n2cnc3cc(C#N)ccc32)n1 (stereo not drawn) | < 50 | < 50 | 
CC(Nc1cncc(-n2cnc3ccccc32)n1)c1ccc(-n2ccnc2)cc1 (stereo not drawn) | < 50 | < 50 | 
Cc1ccc([C@H](C)Nc2cncc(-n3cnc4cc(C#N)ccc43)n2)cc1 | ≥ 50 | < 50 | 
CC(Nc1cncc(-n2cnc3ccncc32)n1)c1ccc(F)cc1 (stereo not drawn) | < 50 | < 50 | 
C[C@H](Nc1cncc(-n2cnc3cccnc32)n1)c1ccccc1 | < 50 | < 50 | 
C[C@H](Nc1cncc(-n2cnc3cc(CO)ccc32)n1)c1ccc(F)cc1 | < 50 | < 50 | 
C[C@@H](c1ccccc1)N(C)c1cncc(-n2cnc3ccc(C#N)cc32)n1 | ≥ 50 | ≥ 50 | ≥ 50
C[C@H](Nc1cncc(-n2cnc3ccc(-c4nn[nH]n4)cc32)n1)c1ccc(F)cc1 | ≥ 50 | < 50 | 
Cc1ncc(-n2cnc3ccc(C#N)cc32)nc1N[C@@H](C)c1ccccc1 | ≥ 50 | ≥ 50 | 
CC(Nc1cncc(-n2cnc3ccc(C#N)cc32)n1)c1ccc(F)c(Cl)c1 (stereo not drawn) | ≥ 50 | ≥ 50 | 
CCN(CC)Cc1ccc2c(c1)ncn2-c1cncc(NC(C)c2ccc(F)cc2)n1 (stereo not drawn) | < 50 | < 50 | ≥ 50
O=S(=O)(Nc1ccc(-c2cncc(-n3cnc4ccccc43)n2)cc1)c1ccccc1 | ≥ 50 | ≥ 50 | 
C[C@H](Nc1cncc(-n2cnc3cccnc32)n1)c1ccc(F)cc1 | < 50 | < 50 | 
CC(Nc1cncc(-n2cnc3ccc(C#N)cc32)n1)c1ccc(F)c(F)c1 (stereo not drawn) | ≥ 50 | ≥ 50 | 
CC(Nc1cncc(-n2cnc3ccc(C#N)cc32)n1)c1cccc2ccccc12 (stereo not drawn) | < 50 | < 50 | 
CC(Nc1cncc(-n2cnc3cc(C#N)ccc32)n1)c1ccccn1 (stereo not drawn) | ≥ 50 | < 50 | 

SMILES | inhibition at 20 µM (human JAK2) [%] | inhibition at 20 µM (human JAK3) [%] | inhibition at 20 µM (kdr) [%]
c1ccc2c(c1)ncn2-c1cncc(-c2ccncc2)n1 | ≥ 50 | < 50 | 
CC(Nc1cncc(-n2cnc3ccc(C#N)cc32)n1)c1ccccn1 (stereo not drawn) | ≥ 50 | ≥ 50 | 
CC(Nc1cncc(-n2cnc3ccc(CN4CCN(C)CC4)cc32)n1)c1ccc(F)cc1 (stereo not drawn) | < 50 | < 50 | 
C[C@H](Nc1cncc(-n2cnc3ccc(CN4CCCCC4)cc32)n1)c1ccc(F)cc1 | ≥ 50 | ≥ 50 | 
C[C@H](Nc1cncc(-n2cc3ccccc3n2)n1)c1ccc(F)cc1 | < 50 | < 50 | 
CC(Nc1cncc(N2CNc3cc(CN4CCN(C)CC4)ccc32)n1)c1ccc(F)cc1 (stereo not drawn) | < 50 | < 50 | ≥ 50
N#Cc1ccc2c(c1)ncn2-c1cncc(NC2CCc3ccc(O)cc32)n1 (stereo not drawn) | < 50 | < 50 | 
CC(Nc1cncc(-n2cnc3cc(CO)ccc32)n1)c1ccc(F)cc1 (stereo not drawn) | < 50 | < 50 | ≥ 50
CC1CC(Nc2cncc(-n3cnc4ccc(C#N)cc43)n2)c2ccccc21 (stereo not drawn) | < 50 | < 50 | 
C[C@H](Nc1cncc(-n2cnc3ncccc32)n1)c1ccc(F)cc1 | < 50 | < 50 | 
N#Cc1ccc2ncn(-c3cncc(Cl)n3)c2c1 | < 50 | < 50 | 
CC(Nc1cncc(-n2cnc3cc(C#N)ccc32)n1)c1ccc(F)c(F)c1 (stereo not drawn) | ≥ 50 | ≥ 50 | 
CC(Nc1cncc(-n2cnc3cc(C#N)ccc32)n1)c1cc(F)cc(F)c1 (stereo not drawn) | ≥ 50 | < 50 | 
N#Cc1ccc2ncn(-c3cncc(NC4CCc5cc(Br)ccc54)n3)c2c1 (stereo not drawn) | < 50 | ≥ 50 | 
C[C@H](Nc1cncc(-n2cnc3ncccc32)n1)c1ccccc1 | < 50 | < 50 | 
C[C@H](Nc1cncc(-n2cnc3ccc(CN4CCC(O)CC4)cc32)n1)c1ccc(F)cc1 | ≥ 50 | < 50 | 
N#Cc1ccc2c(c1)ncn2-c1cncc(N2CCc3ccccc3C2)n1 | < 50 | < 50 | 
C[C@@H](c1ccccc1)N(C)c1cncc(-n2cnc3cc(C#N)ccc32)n1 | < 50 | < 50 | 
N#Cc1ccc2ncn(-c3cncc(NC4Cc5ccccc5C4)n3)c2c1 | < 50 | < 50 | 
CC(Nc1cncc(-n2cnc3ccc(C#N)cc32)n1)c1cccc(C(F)(F)F)c1 (stereo not drawn) | ≥ 50 | < 50 | 
CC(Nc1cncc(-n2cnc3ccc(C#N)cc32)n1)c1cccc(OC(F)(F)F)c1 (stereo not drawn) | < 50 | < 50 | 

SMILES | inhibition at 20 µM (human JAK2) [%] | inhibition at 20 µM (human JAK3) [%] | inhibition at 20 µM (kdr) [%]
C[C@H](Nc1cncc(-n2cnc3cc(C#N)ccc32)n1)c1ccccc1 | ≥ 50 | ≥ 50 | 
N#Cc1ccc2ncn(-c3cncc(NC4CCc5cc(F)ccc54)n3)c2c1 (stereo not drawn) | < 50 | < 50 | 
N#Cc1ccc2c(c1)ncn2-c1cncc(NC2CCc3cc(Br)ccc32)n1 (stereo not drawn) | < 50 | < 50 | 
CC(Nc1cncc(-n2cnc3ccccc32)n1)c1cccc(Cl)c1 (stereo not drawn) | < 50 | < 50 | 
CC(Nc1cncc(-n2cnc3cc(C#N)ccc32)n1)c1cccc(F)c1 (stereo not drawn) | ≥ 50 | ≥ 50 | 
C[C@H](Nc1cncc(-n2cnc3ccc(C#N)cc32)n1)c1ccccc1 | ≥ 50 | ≥ 50 | 
CC[C@H](Nc1cncc(-n2cnc3ccc(C#N)cc32)n1)c1ccccc1 | ≥ 50 | ≥ 50 | 
CCCC(Nc1cncc(-n2cnc3ccccc32)n1)c1ccccc1 (stereo not drawn) | ≥ 50 | < 50 | 
N#Cc1ccc2ncn(-c3cncc(N[C@H]4CCCc5ccccc54)n3)c2c1 | < 50 | < 50 | 
C[C@H](Nc1cncc(-n2cnc3ccc(CN4CCN(CCN)CC4)cc32)n1)c1ccc(F)cc1 | < 50 | < 50 | 
c1cncc(-c2cncc(-n3cnc4ccccc43)n2)c1 | ≥ 50 | < 50 | 
COc1ccc2c(c1)CCC2Nc1cncc(-n2cnc3cc(C#N)ccc32)n1 (stereo not drawn) | < 50 | < 50 | 
C[C@H](Nc1cncc(-n2cnc3cc(NS(=O)(=O)c4ccccc4)ccc32)n1)c1ccccc1 | ≥ 50 | ≥ 50 | 
N#Cc1ccc2ncn(-c3cncc(N4CCc5ccccc5C4)n3)c2c1 | < 50 | < 50 | 
CC(Nc1cncc(-n2cnc3cc(C#N)ccc32)n1)c1cccc(OC(F)(F)F)c1 (stereo not drawn) | < 50 | < 50 | 
CC(Nc1cncc(-n2cnc3cc(CNCCN(C)C)ccc32)n1)c1ccc(F)cc1 (stereo not drawn) | < 50 | < 50 | 
CC(Nc1cncc(-n2cnc3cc(C#N)ccc32)n1)c1cccc(C(F)(F)F)c1 (stereo not drawn) | < 50 | < 50 | 
C[C@H](Nc1cncc(-n2ncc3ccccc32)n1)c1ccc(F)cc1 | < 50 | < 50 | 
COc1cccc2c1CCC2Nc1cncc(-n2cnc3ccc(C#N)cc32)n1 (stereo not drawn) | < 50 | ≥ 50 | 

— patent US7737143B2, “Substituted pyrazines as kinase inhibitors” (YM Biosciences Australia Pty Ltd, priority 2003, dated 2010)
